Experimental data published in patent publication US20170216360A1, “METHODS AND COMPOSITIONS FOR IMPROVING HOMING OF CELLS INCLUDING MESENCHYMAL STEM CELLS” (SANOFI, priority 2014, published 2017).
Structures can show the parent of a compound that is named as a salt. Where two headings read alike, the source gives them in different places.

Key:
Assay type in all cases: cell-based, human
[1] = test system: CD11a surface expression on huMSCs; assay: Medium throughput screen: CD11a surface expression on MSCs, PE-CY5 anti-CD11a antibody, laser-scanning fluorescence microplate cytometer; set-up: key to Cell surface ligand CD11a (induction of expression): NA = negative activity result; A = positive activity result; conditions: for EC50: read-out: Cell Surface Marker ED 50 (M) Molar Concentration of Compound for CD11a Expression
Protocol: An in vitro screen was performed for compounds that induce surface expression on huMSCs of the marker CD11a (LFA-1). This screen may be considered a medium throughput screen. Certain compounds that induce the increase of this surface marker were then selected for testing in an in vitro firm adhesion assay and/or in vivo systemic administration in an animal model of inflammation. The surface expression screen involved fluorophore-conjugated antibodies to the respective markers. Following pretreatment with the test compounds, samples of cells were incubated with the labeled antibodies for detection of surface marker expression and change relative to a reference level of untreated cells or negative control samples or values. Cells were pretreated with a concentration (3 μM) of each small molecule compound for 24 hours, followed by incubation with a fluorophore-conjugated anti-marker antibody to detect expression on MSC surface. Surface expression levels of marker ligands were then evaluated by laser-scanning fluorescence microplate cytometer. […] Cell viability in response to compounds was also tested to assess whether molecules have toxicity after 24 hours of pretreatment. Testing was performed on two different huMSC sources representing cells from different donors.
Further details of the screening approach are provided as follows. A unique single batch of bone marrow-derived MSC cells was prepared for the entire screening campaign by cell amplification using CellStack flasks and freezing in separate vials at passage P5. […] For each run, vials were thawed and cells directly seeded on 384-well plates at 3,000 cells per well in MSCGM medium. Following an overnight incubation, cells were treated with the indicated concentrations of compounds for 24 hours. Cells were washed in PBS, 3% BSA and incubated for one hour with PE-CY5-conjugated anti-CD11a monoclonal antibody (clone HI111). Expression of CD11a at the cell surface was detected using the Acumen Explorer, a laser-scanning fluorescence microplate cytometer after two PBS washings. HL-60 cells seeded at 10,000 cells per well and treated with 100 nM phorbol 12-myristate 13-acetate (PMA) for 24 h to induce cell adhesion were used as a positive control in each 384-well plate. Positive compounds were counter-screened for their auto-fluorescence by measuring the signal in the absence of antibody.
A single batch of bone marrow-derived MSC was prepared for the entire screening campaign by cell amplification using CellStack flasks and freezing in separate vials at passage P5. […] For each run, vials were thawed and cells directly seeded on 384-well plates at 3,000 cells per well in MSCGM medium. Following an overnight incubation, cells were pretreated with a low (0.1 μM) and high (3 μM) concentration of the compounds for 24 h. 9,000 cpds were tested in 112 assay plates, each 384-well plate contained 320 cpds (from column 5 to 24), one column for Max (Column2, HL60 cells) and one column for Min (Column4, MSC cells). Cells were washed in PBS, 3% BSA and incubated for one hour with PE-CY5-conjugated anti-CD11a monoclonal Ab (BD Biosciences). Expression of CD11a at the cell surface was detected after two PBS washes using the Acumen Explorer equipment, a laser-scanning fluorescence microplate cytometer. HL-60 cells (seeded at 10,000 cells per well and treated with 100 nM phorbol 12-myristate 13-acetate (PMA) for 24 h to induce cell adhesion) were used as a positive control in each 384-well plate. Positive compounds were counter-screened for their auto-fluorescence by measuring the signal in the absence of Ab. Shown in FIG. 4 is the global screening data. Using the Max, Min columns, we have calculated Max/Min ratio generated with CD11a Ab for each assay plate (signal/background ration in green columns was calculated for each of the 112 assay plates). […]

[2] = test system: MSC secretome; assay: Secretomic analysis of small molecule-primed MSCs (Bio-plex immunoassays); conditions: for MSC secretome changes, result in words: 3 μM for 24 hours
Protocol: A single batch of human MSCs (#7F3915) was used for all of these experiments. Cells were seeded at 25,000 cells/well in a 12-well microplate. The following day, cells were treated with the selected compound (3 μM) or DMSO (as control). After 24 hours of treatment, secretomic samples were collected, centrifuged and frozen. Secretomes of MSCs were assayed for cytokines, chemokines and growth factors using Bio-plex human 21-plex and 27-plex immunoassay kits (Bio-Rad), according to the manufacturer's instructions. The 27-plex and 21-plex panels consisted of the following analytes: IL-1alpha, IL-1beta, IL-1Ralpha, IL-2, IL-3, IL-4, IL-5, IL-6, IL-7, IL-8, IL-9, IL-10, IL12p40, IL12p70, IL-13, IL-15, IL-17, IL-18, CTACK, GROalpha, HGF, IFN-alpha2, LIF, MCP-1, MCP-3, MIF, MIG, beta-NGF, SCF, SCGF-beta, SDF-1alpha, TNF-alpha, TNF-beta, TRAIL, Eotaxin, FGF-2, G-CSF, GM-CSF, IFN-gamma, IP-10, MIP-1alpha, PDGF-bb, RANTES and VEGF. A standard range of 0.2 to 3,200 pg/mL was used. Samples and controls were run in triplicate, standards and blanks in duplicate. Error bars represent standard deviation (3 independent experiments).
Analysis of the secretome of MSCs was conducted upon pretreatment of MSCs with compound 1929 for 24 h. In this experiment, the MSCs were from donor 318006 (BM318006 P7). The mean and standard deviation values of secretome analytes were measured in pg/ml.

[3] = test system: CD11a surface expression on MSCs; assay: CyTOF analysis of CD11a expression levels on MSCs
Protocol: To further confirm the screening results, the surface expression of CD11a was also examined by Time of Flight Mass Cytometry (CyTOF2, DVS Sciences) (Newell et al., 2013, Nat Biotechnol. 31(7):623-9). MSCs were treated with Ro-31-8425 as indicated and sample preparation was performed per manufacturer's instructions with slight modifications. Briefly, the harvested MSC pellet was first resuspended with Intercalator-103Rh solution (1 μM) in PBS to identify viable cells, then washed twice with MaxPar cell staining buffer and stained with 100 μL antibody cocktail (human Nd142-CD11a and Tb159-CD90, 1:200 dilution in staining buffer) for 30 min at room temperature. After two washes, the cells were further stained with 125 nM MaxPar Intercalator-Ir in MaxPar Fix and Perm buffer for 1-2 h with gentle shaking. Finally the fixed cells were thoroughly washed with ultrapure H2O 2O for three times (1000 g, 5 min each), resuspended in 300 μL H2O and filtered through a 40 μm Falcon cell strainer (Corning) prior to CyTOF data acquisition. The CyTOF data was analyzed with Cytobank on-line data analysis platform (website www cytobank.org).

With `CCc1c2c(nc3ccc(OC(=O)N4CCC(N5CCCCC5)CC4)cc13)-c1cc3c(c(=O)n1C2)COC(=O)[C@]3(O)CC` [Compound 1927, reference compound] the “CD11a surface expression on MSCs, result in words” value ([1]; 24 h pretreatment) was “did not increase”, the EC50 ([1]; Homo sapiens, pretreatment of huMSCs) was over 3e-05 M and the “MSC secretome changes, result in words” value [2] was “no secretome changes”.
`Cn1cc(C2=C(c3c4n(c5ccccc35)CCC(CN)C4)C(=O)NC2=O)c2ccccc21` (stereo not drawn) [Compound 1929, 3-(8-aminomethyl-6,7,8,9-tetrahydro-pyrido[1,2-a]indol-10-yl)-4-(1-methyl-1H-indol-3-yl)-pyrrole-2,5-dione hydrochloride] was tested, and the “CD11a surface expression on MSCs compared to HL-60 cells” value ([1]; 24 h pretreatment) was “two-fold higher”, the “CD11a surface expression on MSCs, result in words” value ([1]; 24 h pretreatment) was “significant increase” and the “Cell surface ligand CD11a (induction of expression)” value ([1]; pretreatment of huMSCs) was “A”. The EC50 ([1]; pretreatment of huMSCs, hydrochloride) was 8e-07 M, the “Time over which the percentage of CD11a-positive MSCs was stable” value ([3]; 3 μM for 24 h) was “at least 4 days” and the “Percentage of CD11a-positive MSCs” value ([3]; 0.1, 1, 3 and 10 μM for 24 hours) was “dose-dependent increase”. For the same molecule, the “MSC secretome changes, result in words” value [2] was “did not substantially alter”, the “Mean of [IFN-g]” value ([2]; 3 μM, 24 h, MSC donor 318006) was 14.9 pg/mL and the “Mean of [IL-6]” value ([2]; 3 μM, 24 h, MSC donor 318006) was 333.5 pg/mL. For the same molecule, the “Mean of [IL-8]” value ([2]; 3 μM, 24 h, MSC donor 318006) was 31.1 pg/mL, the “Mean of [IL-12p70]” value ([2]; 3 μM, 24 h, MSC donor 318006) was 13.9 pg/mL and the “Mean of [MCP-1]” value ([2]; 3 μM, 24 h, MSC donor 318006) was 22.5 pg/mL. For the same molecule, the “Mean of [VEGF]” value ([2]; 3 μM, 24 h, MSC donor 318006) was 486.8 pg/mL, the “IL-6 level secreted by MSC” value ([2]; 3 micromolar for 24 hours) was “downregulation” and the “Fold change of analyte VEGF upon pretreatment (vs. vehicle control)” value ([2]; MSC secretome) was 0.75 +/− 0.26.
